The subject of series [1] is broad panel of receptors, enzymes, and ion channels. The series is described as follows: SafetyScreen44 in vitro pharmacology panel (whole panel). Conditions: SafetyScreen44, 5 μM; active = inhibition above 50%. In kind it is binding. The protocol: We next used in vitro assays to test absorption, distribution, metabolism, excretion and toxicity (ADMET) parameters for selected compounds. We assessed compound absorption using parallel artificial membrane permeability (PAMPA) and Caco-2 cell permeability assays (cut-off criterion >2 × 10^−6 cm s^−1). Compound toxicity was evaluated by measuring inhibition of cytochrome P450 enzymes (CYP), the potassium channel human Ether-a-go-go Related Gene (hERG), and TRPM5, with all parameters meeting acceptable criteria. […] To assess potential off-target activity of our compounds that could be relevant for safety in humans, we conducted comprehensive in vitro pharmacology using the commercially available and widely used SafetyScreen44 interaction panel[60] covering eight protein families.
For in vitro pharmacological profiling and determination of off target effects compound were screened at a 5 μM in duplicate for their potential to bind to a broad panel of receptors, enzymes, and ion channels on a commercially available platform (Safetyscreen 44 Panel; Eurofins Cerep, Le Bois l'Evêque, B.P. 30001, 86 600 Celle l'Evescault, France), Study ID FR095-0009609).

The nature of series [2]: In vivo pharmacokinetics after single i.p. or i.v. dose. As to conditions: female, C57BL/6J, mouse. As to the method:
Next, to assess in vivo availability of the Series 1–3 compounds, we evaluated drug metabolism and pharmacokinetics (DMPK). We measured compound concentrations in plasma, heart, and brain at several time points after intraperitoneal (i.p.) or intravenous (i.v.) single-dose injections.
Half-life and bioavailability were calculated by noncompartmental analysis using the R package PK[84] (v1.3-6).

The target in series [3] is T1, mouse TRPM4 (Mus musculus, UniProt Q7TN37).
T1 construct: Human TRPM4 (UniProtKB: Q8TD43-1) and mouse Trpm4 (UniProtKB: Q7TN37-1) were amplified via PCR; eGFP (C); expressed in transfected cells
The series is described as follows: Inside-out patch clamp, mouse TRPM4. As to conditions: inside-out patch clamp configuration. In kind it is cell-based. (The patch-clamp technique gives a direct electrical read-out from membranes.)

Series [4] addresses hsTRPM4 L907A, S924A and L907A/S924A mutants (Homo sapiens, UniProt Q8TD43, L907A/S924A). As to the kind of experiment: Whole-cell patch clamp of wild-type and binding-site mutant hsTRPM4. Conditions: whole-cell voltage clamp.
Excerpt: (§1) Initially, we assessed the basic properties of the hsTRPM4 mutants using whole-cell patch clamp electrophysiology.
Series [5] concerns hsTRPM4 L907A, S924A and L907A/S924A mutants. Described as above. As to conditions: whole-cell voltage clamp, HEK293T.
Excerpt: as §1
Series [6] addresses T2, human TRPM4 (Homo sapiens, UniProt Q8TD43). As to the kind of experiment: Inside-out patch clamp, human TRPM4. It is filed as cell-based. Details: Human TRPM4 (UniProtKB: Q8TD43-1) and mouse Trpm4 (UniProtKB: Q7TN37-1) were amplified via PCR; expressed in transfected cells. Conditions: inside-out patch clamp configuration. As to the method:
Patch clamp recordings were conducted using an EPC10 patch clamp amplifier and Patchmaster software (HEKA, Germany). An Ag/AgCl wire served as the reference electrode in all experiments. […] Liquid junction potential was compensated before achieving gigaseal formation. All experiments were conducted at room temperature. Whole-cell currents were recorded in transiently transfected HEK293 cells expressing either wildtype human TRPM4, TRPM4-L907A, or TRPM4-S924A. Recordings involved a 400 ms increasing voltage ramp from –100 mV to +100 mV, initiated from a holding potential of 0 mV. The interval between each sweep was 2 seconds, with data sampled at 5 kHz. […] To identify TRPM4 currents, extracellular Na^+ was replaced with equimolar NMDG^+. […] Similar to whole-cell recordings, a 400 ms increasing voltage ramp from –100 mV to +100 mV was applied from a holding potential of 0 mV. The interval between sweeps was 2 seconds, and data were sampled at 5 kHz. […] TRPM4 currents were activated by 500 μM CaCl2 and deactivated by 10 mM EGTA, both added to the intracellular solution. Ca^2+ activation curves were fitted using a likelihood maximization algorithm to estimate the parameters for the sigmoidal fitting curves y-maximum, slope and midpoint as part of the R package sicegar (V0.2.4).

In series [7] the target is T2, human TRPM4. The series is described as follows: QPatch automated patch clamp on TRPM4-expressing HEK293 cells. In kind it is cell-based. As to conditions: hsTRPM4-expressing HEK293 cells. As to the method: QPatchHTX, an automated electrophysiology platform, was used in single hole mode. One day before use human TRPM4- or TRPM5-expressing HEK293 cells were seeded in a T75 flask at a density of 53k cells per cm^2 and at passages < 23. […] The extracellular solution was (in mM): CaCl2 (7), MgCl2 (2), KCl (5), HEPES (10), NaCl (70), NMDG (70); pH 7.4 with NaOH. The intracellular solution was (in mM): HEPES (10), NMDG (100), NaCl (50), EGTA (20), MgCl2 (1), CaCl2 (21); pH 7.2 with HCl. […] This protocol was repeated every 7 seconds. […] FFA was used as reference compound and applied cumulatively with each concentration incubating at a minimum of 20 voltage protocol runs (140 seconds) with the current after addition of FFA being calculated as full block. […] Each compound was measured at least 3 time independently.

Series [8] deals with primary mouse neuronal cultures. As to the kind of experiment: Glutamate-induced excitotoxicity assay (RealTime-Glo viability). It is filed as cell-based. Conditions: 5 μM. The protocol: To evaluate the in vitro efficacy of our developed compounds, we employed primary mouse neuronal cultures (PNCs) and conducted glutamate-induced excitotoxicity assays. Cultures were pre-treated with respective Series 1 and Series 3 compounds before glutamate exposure, and neuronal viability was assessed 15 h post-stimulation with glutamate.
Figure 3 Neuroprotective in vitro evaluation and in vivo pharmacokinetics (A) In vitro evaluation of compound activity on glutamate-induced excitotoxicity in mature primary neuronal cultures. Neuronal cultures were treated with 5 μM of the specified compound or vehicle control 5 h prior to glutamate stimulation, assessing compound rescue activity and toxicity relative to minimal (Vehicle +0 μM Glu) and maximal (Vehicle +50 μM Glu) excitotoxicity. Time course of a representative compound with virtual endpoint at 15 h post stimulation and assay window definition (left). Toxicity of compound treated cultures with and without glutamate stimulation (right). Data are represented as mean and 95% confidence interval; n ≥ 4; ∗p < 0.05, ∗∗p < 0.01, ∗∗∗p < 0.001; One-sample Wilcoxon signed-rank test. […] Mitochondrial membrane potential was measured by the mean fluorescence intensity of TMRE normalized to MitoTracker. Data are represented as mean ± SEM; n = 5; paired t-test. (C) In vivo pharmacokinetics of four selected compounds. Time course of compound concentration in the brain, heart, and plasma after a single dose via intraperitoneal (i.p.) or intravenous (i.v.) application. Data are represented as mean ± SEM. Half-life estimates by non-compartmental analysis are shown as vertical line and IC50 value as dashed horizontal line. (D) Compound concentration in the brain relative to respective IC50 concentrations after a single dose via intra-peritoneal or intra-venous routes. Also see Figure S6.
Excitotoxicity assays were performed using primary mouse neuronal cultures between 14 and 17 days in vitro (DIV). Cell viability was measured using RealTime-Glo MT Cell Viability Assay (Promega, catalog no. G9711) according to the manufacture protocol. Compounds were co-administered with RealTime-Glo reagents, and luciferase measurements were conducted using the Tecan-Spark M10 microplate reader with environmental control set to 37°C and 5% CO2. Neuronal cultures were stimulated with either glutamate or vehicle five hours after compound application and monitored for an additional 20 hours. To adjust for inter-well variability, arbitrary light units were normalized to a steady signal prior to glutamate addition for each well. Toxicity was calculated relative to the minimal cell viability at 15 hours post glutamate stimulation and cell viability of the PBS vehicle control.

The test system is the same in series [9]. As to the kind of experiment: TMRE assay of mitochondrial membrane potential after glutamate. In kind it is cell-based. As to conditions: 50 μM glutamate for 2 h, compound 30 min before. The protocol:
We assessed its ability to inhibit the deterioration of mitochondrial membrane potential (ΔΨm) in response to glutamate-induced excitotoxicity. The ratio between the ΔΨm-dependent dye tetramethylrhodamine ethyl ester (TMRE) and the mitochondrial dye MitoTracker was quantified for this purpose.
Subsequently 50 μM glutamate was applied for in total 2 hours. Then, 20 nM TMRE dye (Abcam, ab113852), 500 nM MitoTracker dye (ThermoFisher, M7512), and 1 μM Hoechst 33342 were added after 1.5 hours glutamate stimulation for 30 minutes. Afterwards cells were washed two times in pre-warmed medium and were imaged immediately in preconditioned medium using a confocal microscope (Zeiss, LSM700) with 20-fold magnification and controlled atmosphere conditions (37°C, 5% CO2). Imaging time was less than 10 minutes per condition. We quantified the total MFI of the MitoTracker and TMRE dyes per cell. At least 50 cells per condition were quantified and the mean ratios of TMRE to Mitotracker per independent experiments were reported.

The text below walks through data of article PMC11648915, “Identification and development of TRPM4 antagonists to counteract neuronal excitotoxicity” (iScience, 2024).

Structures are written as SMILES. Entries after “also recorded” stand apart in the source; their conditions may differ. Like-named read-outs stand apart in the source and are kept apart here.

What is called half-life is how long it takes for the measured level to halve. The term IC50 denotes the point on the concentration scale where inhibition reaches its midpoint. A lower IC50 goes with inhibition by little substance.

T1 sequence (Q7TN37 whole entry): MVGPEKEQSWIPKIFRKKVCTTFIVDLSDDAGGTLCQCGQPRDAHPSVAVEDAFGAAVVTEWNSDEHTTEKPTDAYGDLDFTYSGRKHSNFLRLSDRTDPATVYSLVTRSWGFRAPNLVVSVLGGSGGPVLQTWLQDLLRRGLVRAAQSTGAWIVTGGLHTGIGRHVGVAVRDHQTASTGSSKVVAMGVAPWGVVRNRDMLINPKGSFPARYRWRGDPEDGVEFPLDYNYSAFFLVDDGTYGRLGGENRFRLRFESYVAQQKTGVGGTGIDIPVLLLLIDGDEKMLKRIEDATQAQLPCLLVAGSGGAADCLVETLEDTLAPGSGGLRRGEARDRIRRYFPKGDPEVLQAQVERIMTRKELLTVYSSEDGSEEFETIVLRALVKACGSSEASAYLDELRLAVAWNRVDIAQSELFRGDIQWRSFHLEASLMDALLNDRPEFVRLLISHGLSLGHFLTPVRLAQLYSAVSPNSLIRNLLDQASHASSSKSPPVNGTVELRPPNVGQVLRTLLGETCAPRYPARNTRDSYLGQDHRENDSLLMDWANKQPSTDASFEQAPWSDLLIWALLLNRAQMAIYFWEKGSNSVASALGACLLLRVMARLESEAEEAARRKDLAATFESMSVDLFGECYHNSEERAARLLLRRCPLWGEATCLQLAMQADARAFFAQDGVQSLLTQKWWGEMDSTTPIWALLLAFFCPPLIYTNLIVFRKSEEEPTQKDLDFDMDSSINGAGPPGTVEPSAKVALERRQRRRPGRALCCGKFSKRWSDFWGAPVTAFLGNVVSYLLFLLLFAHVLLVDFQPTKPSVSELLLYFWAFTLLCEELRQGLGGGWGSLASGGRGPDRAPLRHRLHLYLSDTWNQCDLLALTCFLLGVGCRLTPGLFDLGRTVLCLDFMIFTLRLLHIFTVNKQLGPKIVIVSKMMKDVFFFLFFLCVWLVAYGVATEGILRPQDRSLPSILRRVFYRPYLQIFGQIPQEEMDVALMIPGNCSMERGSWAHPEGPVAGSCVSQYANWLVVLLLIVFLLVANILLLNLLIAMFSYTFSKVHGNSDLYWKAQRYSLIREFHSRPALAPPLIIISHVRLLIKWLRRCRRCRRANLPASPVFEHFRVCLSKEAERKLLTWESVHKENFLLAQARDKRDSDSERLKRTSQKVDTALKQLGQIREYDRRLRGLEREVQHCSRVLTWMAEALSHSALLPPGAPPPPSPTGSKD
T2 sequence (Q8TD43 whole entry): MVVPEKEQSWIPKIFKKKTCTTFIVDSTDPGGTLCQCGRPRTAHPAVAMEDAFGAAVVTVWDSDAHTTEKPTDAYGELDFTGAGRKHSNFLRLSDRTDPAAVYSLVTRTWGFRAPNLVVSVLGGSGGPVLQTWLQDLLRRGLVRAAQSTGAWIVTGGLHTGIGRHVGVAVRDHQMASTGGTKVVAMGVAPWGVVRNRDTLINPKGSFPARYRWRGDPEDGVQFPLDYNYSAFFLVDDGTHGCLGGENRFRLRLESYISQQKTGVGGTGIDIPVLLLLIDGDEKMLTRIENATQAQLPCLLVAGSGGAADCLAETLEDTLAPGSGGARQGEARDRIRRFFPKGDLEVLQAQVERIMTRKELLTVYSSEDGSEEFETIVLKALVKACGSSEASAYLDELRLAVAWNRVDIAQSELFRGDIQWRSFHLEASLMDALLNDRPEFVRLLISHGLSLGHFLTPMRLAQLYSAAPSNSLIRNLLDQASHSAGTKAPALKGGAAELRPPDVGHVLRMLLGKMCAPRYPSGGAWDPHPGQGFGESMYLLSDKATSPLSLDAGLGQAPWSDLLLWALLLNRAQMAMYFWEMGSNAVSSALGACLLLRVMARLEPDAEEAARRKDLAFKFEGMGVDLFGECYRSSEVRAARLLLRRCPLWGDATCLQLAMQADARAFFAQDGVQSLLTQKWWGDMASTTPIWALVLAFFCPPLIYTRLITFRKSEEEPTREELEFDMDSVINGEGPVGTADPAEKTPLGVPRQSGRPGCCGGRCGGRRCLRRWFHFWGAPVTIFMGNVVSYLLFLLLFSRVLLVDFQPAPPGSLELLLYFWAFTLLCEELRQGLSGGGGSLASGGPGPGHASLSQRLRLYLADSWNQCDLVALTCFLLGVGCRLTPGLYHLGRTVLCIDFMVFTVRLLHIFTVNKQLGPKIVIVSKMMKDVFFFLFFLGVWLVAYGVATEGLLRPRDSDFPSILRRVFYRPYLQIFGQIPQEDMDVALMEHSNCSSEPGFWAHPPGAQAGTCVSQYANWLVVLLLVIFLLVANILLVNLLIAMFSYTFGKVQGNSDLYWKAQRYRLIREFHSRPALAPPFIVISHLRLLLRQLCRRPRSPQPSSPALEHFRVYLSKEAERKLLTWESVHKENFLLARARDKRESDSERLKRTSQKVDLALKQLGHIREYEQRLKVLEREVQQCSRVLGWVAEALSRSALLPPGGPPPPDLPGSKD
Sequence of hsTRPM4 L907A, S924A and L907A/S924A mutants (Homo sapiens, UniProt Q8TD43, L907A/S924A) (Q8TD43 whole entry L907A/S924A): as the sequence (Q8TD43 whole entry) above, with L907A, S924A counted along it

As for `O=C(CCc1ccccc1)Nc1ccc(Br)cc1C(=O)O` [CMP233], in [1], the “Off-target binding in in vitro pharmacology panel” value is reported as “no off-target binding”. Also, the half-life in [2] (brain, ip, read-out: Brain half-life (converted)) is 1.4 h; in series [2] (brain, iv, read-out: Brain half-life (converted)) it was 0.3 h; in series [2] (heart, ip, read-out: Heart half-life (converted)), 1.1 h; in series [2] (heart, iv, read-out: Heart half-life (converted)), 1.3 h; in series [2] (plasma, ip, read-out: Plasma half-life (converted)), 0.9 h; in series [2] (plasma, iv, read-out: Plasma half-life (converted)), 0.5 h. For the same compound, in series [3], the “Activity on mouse TRPM4” value is “highly effective in both species; also recorded: active on both species”. Further, the “Affinity in the L907A/S924A double mutant” value in series [4] is “completely abolished”. Besides, the “Current inhibition of hsTRPM4 L907A and S924A mutants versus wildtype” value in series [5] is “significantly reduced current inhibition in at least one hsTRPM4 mutant variant”. The “Activity on human TRPM4” value in series [6] is reported as “highly effective in both species; also recorded: active on both species”.

Take `COc1cccc(-c2ccccc2NCc2nc3ccccc3o2)c1` [CMP312]: half-maximal inhibition in series [7] (IC50) required 4.87 µM. The “Protective effect in excitotoxicity assay” value in series [8] (glutamate-stimulated primary mouse neuronal cultures) is “potent protective effects”. Besides, the “Compound toxicity in neuronal cultures” value in series [8] (primary mouse neuronal cultures) is “non-toxicity”. Also, the “Mitochondrial membrane potential (ΔΨm), TMRE / MitoTracker ratio” value in [9] is recorded as “mitigated the glutamate-induced decrease in ΔΨm”. For the same compound, the “Activity on mouse TRPM4” value in series [3] is “reduced activity on mouse TRPM4 compared to human TRPM4; also recorded: significantly less effective on mouse TRPM4”. In addition, in series [4], the “Affinity in the L907A/S924A double mutant” value was “completely abolished”. Besides, the “Current inhibition of hsTRPM4 L907A and S924A mutants versus wildtype” value in series [5] is given as “significantly reduced current inhibition in at least one hsTRPM4 mutant variant”. In addition, in [6], the “Activity on human TRPM4” value was “almost completely blocked”.
